Values quoted from earlier work, collected in article PMC7696216, “Bi-Functional Alginate Oligosaccharide–Polymyxin Conjugates for Improved Treatment of Multidrug-Resistant Gram-Negative Bacterial Infections” (Pharmaceutics, 2020).

Conditions: in vivo; cited from earlier work

Substance: colistimethate sodium
- plasma colistin concentration at steady-state: 0.5 to 4 µg/mL
